Source: patent US3931140A, “(H-gly-gly-tyr-ala)^1 -somatostatin” (American Home Products Corporation, priority 1975, dated 1976)

System: growth hormone present in the plasma
Test: In vivo growth hormone in plasma of Nembutal-treated rats by radioimmunoassay
Settings: for growth hormone per milliliter of plasma (average): 500 micrograms per kilogram, blood sampled 15 minutes after administration, p<0.01
Experimental: The in vivo activity of the heptadecapeptide of this invention was established by injecting Nembutal intraperitoneally into rats weighing between 200 to 250 grams in an amount of 50 milligrams per kilogram body weight. After five minutes, the heptadecapeptide of this invention was administered to the rats in a dose of 500 micrograms per kilogram body weight from a solution made from three milligrams of the heptadecapeptide,1.2 milliliters of water and 4.8 milliliters of polyethylene glycol (PEG 400). The rats blood was sampled 15 minutes after administration of the heptadecapeptide and the amount of growth hormone present in the plasma was determined by radioimmunoassay.

## C[C@H](NC(=O)[C@H](Cc1ccc(O)cc1)NC(=O)CNC(=O)CN)C(=O)NCC(=O)N[C@H]1CSSC[C@@H](C(=O)O)NC(=O)[C@H](CO)NC(=O)[C@H]([C@@H](C)O)NC(=O)[C@H](Cc2ccccc2)NC(=O)[C@H]([C@@H](C)O)NC(=O)[C@H](CCCCN)NC(=O)[C@H](Cc2c[nH]c3ccccc23)NC(=O)[C@H](Cc2ccccc2)NC(=O)[C@H](Cc2ccccc2)NC(=O)[C@H](CC(N)=O)NC(=O)[C@H](CCCCN)NC1=O [heptadecapeptide, Glycyl-glycyl-L-tyrosyl-L-alanyl-glycyl-L-cysteinyl-L-lysyl-L-asparaginyl-L-phenylalanyl-L-phenylalanyl-L-tryptophyl-L-lysyl-L-threonyl-L-phenylalanyl-L-threonyl-L-seryl-L-cysteine[6-17 cyclic disulfide]]
Another experiment, twelve rats for control and testing, control 66 ± 10
  growth hormone per milliliter of plasma (average): 21 ± 7 nanograms growth hormone per milliliter of plasma
Comparison with somatostatin, in words
  activity in reducing growth hormone concentrations in blood plasma compared with somatostatin: exceeds the activity of somatostatin
First determination, eight treated rats, Nembutal 50 mg/kg i.p., control 86 ± 15
  growth hormone per milliliter of plasma (average): 9 ± 4 nanograms growth hormone per milliliter of plasma
